From US20240285808A1, “MOLECULAR PROBES FOR IN VIVO DETECTION OF ALDEHYDES” (The General Hospital Corporation, priority 2021, published 2024)

Columns and labels:
[1] = system: PDAC6 xenograft tumor; assay: MR imaging of PDAC6 tumor xenograft model; format: in vivo, mouse; details: 60 min post injection
Protocol: Male NU(NCr)-Foxn1nu nude mice at 6-8 weeks of age were provided by Charles River Labs, Wilmington, MA. A total of 1×10^7 patient derived metastatic pancreatic cancer cells (PDAC6) were injected into the subcutaneous space of the right lower back of the mice (n=4 per group). Mice were imaged with Mn-17 (100 μmol/kg) 4 weeks after implanting the tumor for pretreatment imaging, and another group of mice were imaged 3-days post treatment with FOLFIRINOX (Folinate 50 mg/kg, Oxaliplaton 2.5 mg/kg, Irinotecan 25 mg/kg, Fluorouracil 25 mg/kg).
For PDAC6 xenograft tumor imaging, images were acquired with following sequences and parameters: 3D T1 weighted FLASH (TR/TE/FA=14 ms/[…]/30°, 0.4 mm isotropic spatial resolution, field of view (FOV) 35 mm×35 mm, two average, acquisition time=4.3 min) images were acquired prior to and dynamically post injection of contrast agent; 3D RARE (RARE, TR/TE/FA=[…]/57 ms/180°, 0.3 mm isotropic spatial resolution, field of view (FOV) 35 mm×60 mm, one average, acquisition time=8.1 min) image was also acquired.
For tumor imaging analysis, RARE image and first FLASH image post-contrast were used to define volumetric region of interest (ROIs) in the tumor that excluded necrosis region. ΔCNR was calculated by eq 22.

[2] = Reaction rates with butyraldehyde measured by HPLC-ICP-MS (Method B); format: physicochemical; details: Method b: butyraldehyde 100 μM, probe 25 μM, pH 7.40
[3] = Affinity measurements of Gd^3+ complex with butyraldehyde (HPLC-ICP-MS); format: physicochemical
Protocol: FIG. 43A. […] FIG. 43B. Affinity measurements of Gd^3+ complex with butyraldehyde. Concentration-dependent binding of the probes to butyraldehyde as determined by HPLC-ICP-MS (pH 7.4 in PBS, 12 h).

[4] = target: T1, BSA-ALD (Bos taurus, UniProt P02769); assay: On/off rate with oxidized BSA-ALD; format: binding, bovine; details: for fold higher initial on rate / reactivity with BSA-Ald compared to Gd-CHyd: BSA-Ald 10 mg/mL in PBS
T1 construct: made in house; host or cells: no expression host: BSA oxidised chemically with sodium ascorbate, ferric chloride and H2O2, then desalted on PD-10
T1 sequence (P02769 25-607): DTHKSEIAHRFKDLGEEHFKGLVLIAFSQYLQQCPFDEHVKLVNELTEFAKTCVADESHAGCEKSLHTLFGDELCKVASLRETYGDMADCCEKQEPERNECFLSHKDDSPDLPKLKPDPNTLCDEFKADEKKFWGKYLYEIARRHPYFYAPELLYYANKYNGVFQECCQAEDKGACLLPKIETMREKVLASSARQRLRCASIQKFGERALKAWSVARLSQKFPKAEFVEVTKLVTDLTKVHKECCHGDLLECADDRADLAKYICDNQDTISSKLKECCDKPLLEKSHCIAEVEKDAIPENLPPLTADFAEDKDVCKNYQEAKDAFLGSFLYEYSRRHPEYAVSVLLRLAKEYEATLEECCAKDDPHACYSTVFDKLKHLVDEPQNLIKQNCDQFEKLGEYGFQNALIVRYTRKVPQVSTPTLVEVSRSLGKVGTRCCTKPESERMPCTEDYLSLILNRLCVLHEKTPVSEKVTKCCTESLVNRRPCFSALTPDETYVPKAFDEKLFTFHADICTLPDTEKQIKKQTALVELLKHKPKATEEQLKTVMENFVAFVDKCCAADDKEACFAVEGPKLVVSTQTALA
Protocol: On Off Rate with Oxidized BSA-ALD:
BSA-ALD (10 mg/mL) was incubated with 200 μM corresponding Gd or Mn complex at 37° C. in pH 7.4 PBS), with a total volume of 300 μL. The dynamic longitudinal (T1) relaxation time were measured using a Bruker mq60 Minispec at 1.41 T and 37° C. After 24 hours, protein-bound and protein-free solutions were separated by ultrafiltration. Then 200 μL PBS was added to the residue to dissolve the protein bound species. The change of longitudinal (T1) relaxation time was then measured in Bruker mq60 Minispec at 1.41 T and 37° C.

[5] = target: T1, BSA-ALD; assay: Binding yield measurements of Gd^3+ complex with BSA^Ald (ultrafiltration, ICP-MS); set-up: species or system bovine; details: pH 7.4, PBS, 37° C., 12 h, ultrafiltration 5,000 Da cut-off
Protocol: FIG. 48. […] Binding concentration of the probes to BSA^Ald (pH 7.4, PBS, 37° C., 12 h) as determined by ICP-MS following an ultrafiltration (5,000 Da cut-off) to separate the protein-bound probe from the unbound probe. Slope gives the binding yield.
Alternatively, preparation of BSA^Ald and binding of Gd^3+ probe to protein was carried out according to modified procedures. To a solution of bovine serum albumin (BSA) (100 mg) dissolved in phosphate buffered saline (4 mL, pH 7.4, 0.25 mM) was added sodium ascorbate (20 mg), ferric chloride (120 μL, 10 mM) and 20 μL H2O2 (30% w). The reaction was stirred at 37° C. for 24 h, and sodium ascorbate (20 mg) was added repeatedly every 8 h. After 24 h, the protein was purified using PD-10 Sephadex G25 desalting columns (GE Healthcare), eluted with PBS. Protein concentration was assessed using the ‘Micro BCA Protein Assay Kit’ (Thermo Scientific, 23235). Protein carbonyl concentration was determined by ‘Protein Carbonyl Content Assay Kit’ (Sigma-Aldrich, MAK094-1KT). […] The protein solutions were kept at a concentration of 20 mg/mL for further use.

[6] = system: ECM proteins from fibrotic rat liver; assay: Relaxivity measurements in ECM; format: binding; details: for relaxivity in ECM: PBS, pH 7.4, 2 h, 37° C., 1.41T; for relaxivity in ECM with 100-fold excess of hydrazine: aldehydes blocked with N2H4
Protocol: Liver fibrosis was induced in male Sprague Dawley rats by ligation of the common bile duct (CD®, Charles River Labs, Wilmington, MA). Ten days after common bile duct ligation, the fibrotic liver was harvested and sequential extractions were performed using the CNMCS (Cytosol/Nucleus/Membrane/Cytoskeleton) Compartmental Protein Extraction kit (Cytomol, Union City, CA) according to manufacturer's instructions. In brief, frozen tissues (150-200 mg) were homogenized and with solvents provided in the kit to sequentially to remove: cytosolic proteins, nuclear proteins, membrane proteins, and cytoskeletal proteins, leaving a final insoluble fraction enriched for ECM proteins.
Relaxivity Measurements in ECM
The enriched ECM proteins from 800 mg of fibrotic rat liver were suspended in 1 ml PBS. The ECM protein concentration was about 10% (5 mg in a 50 μL aliquot determined by weight after lyophilization). An aliquot of the solution (50 μL) was treated for 2 h at 37° C. with the corresponding molecular probe at a range of concentrations (0.01-0.1 mM) and then longitudinal (T1) relaxation measurements was recorded using a Bruker mq60 Minispec at 1.41 T and 37° C. For the blocking experiment with N2H4, a 100 fold-excess of N2H4 referred to the concentration of molecular probe was added to the solution before the incubation. Longitudinal (T1) relaxation times were measured via an inversion recovery experiment using 10 inversions of duration ranging between 0.05×T1 and 10×T1. Relaxivity (r1) was determined from the slope of a plot of 1/T1 vs metal concentration for 4 concentrations.

[7] = 3-days post treatment (FOLFIRINOX)

| SMILES | ΔCNR of PDAC6 xenograft tumor [1, 7] | ΔCNR of PDAC6 xenograft tumor ([1]; Pre-treatment) | k (second order rate constant) [2] | fold improved affinity over Gd-11 and Gd-CHyd [3] | faster on-rate than monobinder Gd-CHyd [4] | fold slower off-rate than Gd-CHyd [4] | slower off-rate than monobinder Gd-CHyd [4] | fold higher initial on rate / reactivity with BSA-Ald compared to Gd-CHyd [4] | equilibrium binding to BSA^Ald (binding yield) [5] | relaxivity in ECM [6] | relaxivity in ECM with 100-fold excess of hydrazine [6] |
| --- | --- | --- | --- | --- | --- | --- | --- | --- | --- | --- | --- |
| CN(C)C(CCC(=O)NCCCN1CCN(CC(=O)[O-])Cc2cccc(n2)CN(CC(=O)[O-])CC1)C(=O)O.[Mn+2] (stereo not shown) [Mn-18] | 0.4 ± 0.3 | 0.4 ± 0.3 |  |  |  |  |  |  |  |  |  |
| NN1CCN(C(=O)CCC(C(=O)[O-])N2CCN(CC(=O)[O-])CCN(CC(=O)[O-])CCN(C(CCC(=O)N3CCN(N)CC3)C(=O)[O-])CC2)CC1.[Gd+3] (stereo not drawn) [Gd-9, cis-1,4-Gd-(CHyd)2] |  |  | 3.6 M⁻¹ s⁻¹ | 2 fold | 600% | 1.5 fold | 50% | 6 fold | 39.2% | 7.8 mM⁻¹ s⁻¹ | 6.6 mM⁻¹ s⁻¹ |
| NNCC(=O)NCCCN1CCN(CC(=O)[O-])Cc2cccc(n2)CN(CC(=O)[O-])CC1.[Mn+2] [Mn-17] | 6.4 ± 1.2 | 4.6 ± 1.0 |  |  |  |  |  |  |  |  |  |
| NN1CCN(C(=O)CCC(C(=O)[O-])N2CCN(CC(=O)[O-])CCN(C(CCC(=O)N3CCN(N)CC3)C(=O)[O-])CCN(CC(=O)[O-])CC2)CC1.[Gd+3] (stereo not drawn) [Gd-10, trans-1,7-Gd-(CHyd)2] |  |  | 3.5 M⁻¹ s⁻¹ | 2 fold |  |  |  | 3 fold | 28.1% | 7.2 mM⁻¹ s⁻¹ | 6.7 mM⁻¹ s⁻¹ |
